Laboratory results from PMC8998618, “A Pharmacokinetic and Metabolism Study of the TRPC6 Inhibitor SH045 in Mice by LC-MS/MS” (International Journal of Molecular Sciences, 2022).
Like-named read-outs stand apart in the source and are kept apart here.

Assay: plasma pharmacokinetics after single i.v. and p.o. administration, NCA
Format: in vivo, mice
Conditions: for increase in AUCinf with 10-fold dosing / increase in cmax with 10-fold dosing: 20 vs 2 mg/kg BW; for Cmax / Tmax / AUC(0-inf) / AUC(0-t) / MRT / half-life / bioavailability / CL/F / Vd/F / AUCextra / Vz/F: plasma; for bioavailability: from AUCinf, read-out: oral bioavailability (F); for Vd/F: read-out: Vz/F
Procedure: Analysis of SH045 in samples from plasma, tissue, urine, and microsomal incubations was performed as previously described. Details are described in Supplementary Materials SM2.
Male C57BL/6 mice (25–30 g BW, Charles River, Sulzfeld, Germany) housed in groups under standard conditions and allowed access to lab chow and water ad libitum were used. The in vivo experiments were performed according to the national regulations of animal welfare and were ethically approved by the local committee on animal welfare and the local authorities. Animal experiments were performed under strict consideration of the 3R principles, fully complying with the ARRIVE guidelines. For single SH045 administration mice were assigned to four groups of 12 animals each: 2 and 20 mg/kg BW applied via the i.v. and the p.o. route, respectively. Due to the recommended limited volume for blood collection, each mouse was assigned to a maximum of five different time points each out of 8 (for p.o.) and 9 (for i.v.) for blood collection resulting in six independent plasma concentration values per time point.
SH045 was freshly prepared with DMSO (final concentration 0.5%) and Kolliphor® EL (5% in water). At 7:00 a.m., one hour before drug administration, food was removed. For oral gavage and for i.v. administration into the tail vein the respective dose was applied in a volume of 3 mL/kg BW.
Via heparin-coated catheters a maximum of 50 µL blood was collected from the tail vein at 0.25, 0.5, 1, 2, 3, 4, 6, 8, or 24 h after administration and immediately centrifuged at 4000× g at 4 °C for 10 min. For repeated administration 20 mg/kg BW SH045 were administered at 8:00 a.m. on five consecutive days, once a day. Blood was taken 1 h and 24 h after drug administration. Tissue samples were harvested from isoflurane-euthanized animals at indicated time points. Mice were transcardially perfused with PBS and dissected tissues were washed to remove remaining blood. Plasma and tissue samples were stored at −80 °C until analysis. Urine was collected by bladder puncture at indicated time points.
Pharmacokinetics parameters for SH045 were determined based on non-compartmental model analysis (NCA) using the Phoenix WinNonlin Software 8.3 (Certara, Princeton, NJ, USA). The slope of the terminal phase of the SH045 concentration-time profile (λz) was estimated as absolute values from ≥3 data points using a log-linear regression analysis. The area under the concentration-time curve (AUC) for the time (t) providing the final measurable concentration (AUClast) was calculated using the mixed log-linear trapezoidal rule (linear up, log down). The AUCinf was computed as AUClast + Clast/λz, where the estimated value of the latest data point is used. The systemic total body clearance from plasma (CLp) was calculated as applied dose divided by AUCinf. MRT was calculated as AUMCinf/AUCinf, where area under the first moment curve (AUMC) was defined as area under the curve of the product of time and the plasma drug concentration versus time from zero to infinity. Finally, the AUCextra extrapolates the AUC from the last measured time point to infinity. Vz, the apparent volume of distribution during terminal elimination phase was calculated by Vz = Dose/AUCinf × λz, where λz is the plasma elimination rate constant. The apparent volume of distribution during the terminal phase following extravascular administration based on the fraction of dose absorbed Vz/F = Dose/(AUCinf × λz). The bioavailability (F) of two oral doses SH045 doses were calculated with reference to identical doses administered by intravenous bolus application of SH045 as follows: F = AUCoral/AUCi.v. Tissue binding of SH045 was analyzed exemplarily in lung, liver and kidney homogenate using ultrafiltration. The concentration in the filtrate refers to the unbound SH045 concentration according to tissue binding (%) = (ctot − cfiltrate)/ctotal × 100. For details see Supplementary Materials SM5.

[1] = male, C57BL/6, mouse, iv, mice, single 2.0 mg/kg BW i.v.
[2] = male, C57BL/6, mouse, iv, mice, single 2.0 mg/kg BW i.v., NCA
[3] = male, C57BL/6, mouse, iv, mice, single 20 mg/kg BW i.v.
[4] = male, C57BL/6, mouse, iv, mice, single 20 mg/kg BW i.v., NCA
[5] = male, C57BL/6, mouse, po, mice, single 2.0 mg/kg BW p.o.
[6] = male, C57BL/6, mouse, po, mice, single 2.0 mg/kg BW p.o., NCA
[7] = male, C57BL/6, mouse, po, mice, single 20 mg/kg BW p.o.
[8] = male, C57BL/6, mouse, po, mice, single 20 mg/kg BW p.o., NCA
[9] = mice, single 2.0 mg/kg BW i.v., NCA
[10] = mice, single 20 mg/kg BW i.v., NCA

- total body clearance following oral administration with regard to oral bioavailability (2 mg/kg p.o.): 95 mL/min/kg
- time up to which SH045 is measurable in plasma (20 mg/kg BW i.v.): up to 24 h
- corresponding drug plasma concentration (20 mg/kg BW i.v., corresponding to urine period 10–30 min): 3035 nM
- corresponding drug plasma concentration (20 mg/kg BW i.v., corresponding to urine period 60–80 min): 1655 nM
- corresponding drug plasma concentration (20 mg/kg BW i.v., corresponding to urine period 100–120 min): 560 nM
- accumulation of SH045 in plasma after repeated administration (20 mg/kg i.v. five times once a day, 1 and 24 h after the last injection): no accumulation
- AUCextra percentage, simulated recalculation including late low concentration values (20 mg/kg i.v., NCA): 0.8%
- total body clearance following oral administration with regard to oral bioavailability (20 mg/kg p.o.): 117 mL/min/kg
- increase in AUCinf with 10-fold dosing (i.v.): 8.1 fold
- increase in cmax with 10-fold dosing (i.v.): 6.5 fold
- Cmax [1]: 369 ng/mL
- Tmax [1]: 0.25 h
- AUC(0-inf) [2]: 351 ng·h/mL
- AUC(0-t) [2]: 338 ng·h/mL
- MRT [2]: 0.75 h
- half-life (male, C57BL/6, mouse, iv, mice, single 2.0 mg/kg BW i.v., NCA, read-out: t1/2 (converted)): 1.28 h
- Cmax [3]: 2390 ng/mL
- Tmax [3]: 0.25 h
- AUC(0-inf) [4]: 2840 ng·h/mL
- AUC(0-t) [4]: 2720 ng·h/mL
- MRT [4]: 1.52 h
- half-life (male, C57BL/6, mouse, iv, mice, single 20 mg/kg BW i.v., NCA, read-out: t1/2 (converted)): 2.37 h
- half-life (male, C57BL/6, mouse, intravenous, oral, range over both doses and routes, read-out: mean half-life (t1/2)): 1.2 to 2.4 h
- bioavailability (male, C57BL/6, mouse, po, 2 mg/kg p.o.): 24%
- bioavailability (male, C57BL/6, mouse, po, 20 mg/kg p.o.): 11%
- Cmax [5]: 68.3 ng/mL
- Tmax [5]: 0.5 h
- AUC(0-inf) [6]: 84.2 ng·h/mL
- AUC(0-t) [6]: 69 ng·h/mL
- MRT [6]: 1.78 h
- CL/F (male, C57BL/6, mouse, po, mice, single 2.0 mg/kg BW p.o., NCA, read-out: CL/F): 396 mL/min/kg
- Vd/F [6]: 39.5 L/kg
- half-life (male, C57BL/6, mouse, po, mice, single 2.0 mg/kg BW p.o., NCA, read-out: t1/2 (converted)): 1.15 h
- Cmax [7]: 341 ng/mL
- Tmax [7]: 0.5 h
- AUC(0-inf) [8]: 314 ng·h/mL
- AUC(0-t) [8]: 298 ng·h/mL
- MRT [8]: 1.68 h
- CL/F (male, C57BL/6, mouse, po, mice, single 20 mg/kg BW p.o., NCA, read-out: CL/F): 1060 mL/min/kg
- Vd/F [8]: 171 L/kg
- half-life (male, C57BL/6, mouse, po, mice, single 20 mg/kg BW p.o., NCA, read-out: t1/2 (converted)): 1.86 h
- AUCextra [9]: 3.7%
- CL/F [9]: 94.9 mL/min/kg
- Vz/F [9]: 10.5 L/kg
- AUCextra (mice, single 2.0 mg/kg BW p.o., NCA): 17.5%
- AUCextra [10]: 4.2%
- CL/F [10]: 117.2 mL/min/kg
- Vz/F [10]: 24.0 L/kg
- AUCextra (mice, single 20 mg/kg BW p.o., NCA): 5.0%
- F (mice, single 2.0 mg/kg BW i.v. (reference route)): 1.0
- F (mice, single 2.0 mg/kg BW p.o., F = AUCoral/AUCi.v.): 0.24
- F (mice, single 20 mg/kg BW i.v. (reference route)): 1.0
- F (mice, single 20 mg/kg BW p.o., F = AUCoral/AUCi.v.): 0.11
- increase in AUCinf with 10-fold dosing (oral): 3.7 fold
- increase in cmax with 10-fold dosing (oral): 5.0 fold
- time up to which SH045 is measurable in plasma (orally): up to 6 h
Structure (SMILES): C=C[C@@](C)(O)CC[C@H]1C(=C)C[C@H](OC(=O)NC)[C@H]2C(C)(C)CCC[C@]12C [SH045, (1S,4S,4aR,8aS)-4-((S)-3-Hydroxy-3-methylpent-4-en-1-yl)-4a,8,8-trimethyl-3-methylenedecahydronaphthalen-1-yl methylcarbamate]
